Values joined by “and” are separate entries in the source; they are usually repeats but may differ in a detail not shown here. Identical values can stand only once.
Assays:
TSPO [1] = molecular target: T1, TSPO (Rattus norvegicus, UniProt P16257); experiment: Kinetic modelling of PET data (2TCMR, Logan): BPND and VT; assay type: in vivo
T1 construct: from tissue; host or cells: Brain regions and peripheral organs of male Wistar rats, measured in vivo by PET and ex vivo by gamma counting
Method: PET scans with arterial blood sampling were performed in a different set of rats to generate input for pharmacokinetic modelling. For the arterial blood sampling a cannula was inserted into the femoral artery after induction of anaesthesia. The femoral vein was additionally cannulated for PET tracer injection. After cannulation, the rats were positioned in the camera and a transmission scan was acquired using a ^57Co point source. […] A 0.1 ml blood sample of was taken at 0, 5, 10, 15, 20, 30, 45, 60, 75, 90, 120, 180, 300, 450, 600, 900, 1,800 and 3,600 s after injection. A larger blood sample of 0.5 ml was taken at three time points (5, 15, 30 and/or 60 min) for metabolite analysis. After collection of each blood sample, heparinized saline was injected to prevent large changes in blood pressure. A 25 μl aliquot of whole blood was extracted from each sample for radioactivity measurement. The remainder of each sample was centrifuged at 13,000 rpm (15,996 g) for 8 min, and 25 μl plasma was taken for radioactivity measurement. The radioactivity in blood and plasma was measured with a gamma counter.
The TACs of those rats in which blood sampling was performed, together with their corresponding whole-blood and metabolite-corrected plasma curves, were used for pharmacokinetic modelling using PMOD v3.3 (PMOD Technologies, Zürich, Switzerland). […] The reversible two-tissue compartment model (2TCMR) with K 1/k 2 fixed to the whole cortex value and a fixed blood volume of 3 % were used to calculate the V T and nondisplaceable binding potential (BPND, calculated as k 3/k 4 [29]).

TSPO [2] = molecular target: TSPO; design: method as in PMID 25616581; conditions: cited from earlier work
TSPO [3] = test system: TSPO; design: method as in PMID 25616581; conditions: 6-hydroxydopamine-injured striatum in rats; cited from earlier work
[4] = lipophilicity; cited from earlier work
TSPO [5] = conditions: normal mice; cited from earlier work
[6] = control rats (PBS group), k3/k4

## CCCN(CCC)C(=O)Cc1c(-c2ccc(O[11CH3])cc2)nc2c(Cl)cc(Cl)cn12 [[^11C]CB184]
TSPO [1]; HSE group, k3/k4
  Binding potential (BPND), Cerebellum: 3.83 ± 0.63
  Binding potential (BPND), Frontal cortex: 3.08 ± 1.20
  Binding potential (BPND), Hippocampus: 2.44 ± 0.34
  Binding potential (BPND), Midbrain: 2.50 ± 0.51
  Binding potential (BPND), Olfactory bulb: 8.82 ± 2.97
  Binding potential (BPND), Rest cortices: 2.69 ± 0.47
  Binding potential (BPND), Striatum: 1.91 ± 0.41
  Binding potential (BPND), Thalamus: 1.85 ± 0.41
  Binding potential (BPND), Whole brain: 3.25 ± 0.41
TSPO [1]; [6]
  Binding potential (BPND), Amygdala: 2.4 ± 1.2 and 2.39 ± 1.23
  Binding potential (BPND), Cerebellum: 2.88 ± 1.39
  Binding potential (BPND), Frontal cortex: 2.14 ± 1.23
  Binding potential (BPND), Hippocampus: 1.55 ± 0.90
  Binding potential (BPND), Hypothalamus: 2.7 ± 1.6 and 2.74 ± 1.62
  Binding potential (BPND), Medulla: 2.6 ± 1.2 and 2.64 ± 1.16
  Binding potential (BPND), Midbrain: 1.73 ± 0.98
  Binding potential (BPND), Olfactory bulb: 5.56 ± 2.67
  Binding potential (BPND), Pons: 2.6 ± 1.3 and 2.63 ± 1.31
  Binding potential (BPND), Rest cortices: 2.27 ± 1.37
  Binding potential (BPND), Septum: 1.5 ± 0.9 and 1.53 ± 0.90
  Binding potential (BPND), Striatum: 1.28 ± 0.74
  Binding potential (BPND), Thalamus: 1.17 ± 0.78
  Binding potential (BPND), Whole brain: 2.25 ± 1.17
TSPO [1]; medulla
  Increase of BPND in the medulla, HSE rats vs. control rats: 93%
TSPO [2]; read-out: K i (TSPO affinity)
  Ki: 0.54 nM
TSPO [2]; times higher affinity, ratio of K i values
  TSPO affinity relative to (R)-[^11C]PK11195: 7.9 times
TSPO [3]
  Inflammation-induced binding as compared with (R)-[^11C]PK11195: comparable
[4]
  logP: 2.06
TSPO [5]
  Uptake in TSPO-rich regions (cerebellum and olfactory bulb) as compared with (R)-[^11C]PK11195: higher uptake
